In ChEMBL document CHEMBL5523739, “NN1213 - A Potent, Long-Acting, and Selective Analog of Human Amylin” (J Med Chem, 2024):
≈ marks a conversion by molar mass, not a printed value. Calls of active or inactive are those of the source. The calls are words filed in the database; no cut-off is given here.

Legend:
[1] = Solubility of compound at pH 4 incubated overnight by UPLC analysis; assay type: physicochemical; details: buffer
[2] = target: Amylin receptor AMY2; CALCR/RAMP2 (Homo sapiens, UniProt O60895+P30988); assay: Agonist activity at human AMY2R complex of CTR/RAMP2 transduced in human HeLa cells by cAMP assay; assay type: functional, cell-based
Canis familiaris [3] = assay: Appetite suppressing activity in dog assessed as reduction in food intake at 30 nmol/kg, sc measured upto 7 days; assay type: functional, organism-based; details: Canis lupus familiaris, time <= 7.0 day
Calcitonin receptor [4] = target: T1, Calcitonin receptor (Rattus norvegicus, UniProt P32214); assay: Displacement of 125I-Calcitonin from rat CTR expressed in Baby hamster kidney cell membrane incubated for 120 mins by SPA method; assay type: cell membranes
T1 sequence (P32214 whole entry): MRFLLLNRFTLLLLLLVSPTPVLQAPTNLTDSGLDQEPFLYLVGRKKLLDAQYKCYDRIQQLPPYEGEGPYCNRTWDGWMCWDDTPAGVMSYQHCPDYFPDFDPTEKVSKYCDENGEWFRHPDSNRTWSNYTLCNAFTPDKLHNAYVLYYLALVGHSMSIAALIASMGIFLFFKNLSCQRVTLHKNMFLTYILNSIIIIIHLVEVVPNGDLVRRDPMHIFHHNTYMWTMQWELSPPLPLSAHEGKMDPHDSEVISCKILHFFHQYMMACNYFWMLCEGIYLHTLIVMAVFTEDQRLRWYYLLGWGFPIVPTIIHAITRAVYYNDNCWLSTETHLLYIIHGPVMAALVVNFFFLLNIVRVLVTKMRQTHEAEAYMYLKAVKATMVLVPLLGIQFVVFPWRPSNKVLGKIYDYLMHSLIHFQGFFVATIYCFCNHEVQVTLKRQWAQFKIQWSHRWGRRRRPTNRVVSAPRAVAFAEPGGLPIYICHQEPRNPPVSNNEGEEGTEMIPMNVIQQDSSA

Rattus norvegicus [5] = assay: Appetite suppressing activity in HFD-fed DIO rat model assessed as reduction in food intake at 0.7 to 22 nmol/kg, sc qd measured after 15 days; assay type: functional, organism-based; details: dose 0.7-22 nmol/kg, time 15.0 day
Rattus norvegicus [6] = assay: Effect on lean mass of HFD-fed DIO rat model at 0.7 to 22 nmol/kg, sc qd measured after 21 days; assay type: functional, organism-based; details: dose 0.7-22 nmol/kg, time 21.0 day
[7] = target: T2, Amylin receptor AMY3; CALCR/RAMP3 (Rattus norvegicus, UniProt P32214+Q9JJ73); assay: Agonist activity at rat AMY3R complex of CTR/RAMP3 expressed in Baby hamster kidney cells incubated for 3 hrs by cAMP assay; assay type: functional, cell-based, Baby hamster kidney cell
T2 sequence (P32214 whole entry): T1 sequence (P32214 whole entry)
T2 sequence (Q9JJ73 whole entry): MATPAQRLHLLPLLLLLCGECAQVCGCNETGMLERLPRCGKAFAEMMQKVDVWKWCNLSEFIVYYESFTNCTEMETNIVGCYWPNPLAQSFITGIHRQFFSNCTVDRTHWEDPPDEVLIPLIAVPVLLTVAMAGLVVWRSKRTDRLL

Rattus norvegicus [8] = assay: Appetite suppressing activity in HFD-fed DIO rat model assessed as reduction in food intake at 0.7 to 22 nmol/kg, sc qd measured for 1 to 2 hrs; assay type: functional, organism-based; details: dose 0.7-22 nmol/kg, time 1-2 hrs
Rattus norvegicus [9] = assay: Appetite suppressing activity in HFD-fed DIO rat model assessed as body weight lost at 0.7 nmol/kg, sc qd measured after 21 days; assay type: functional; details: time 21 day
Calcitonin receptor [10] = target: T1, Calcitonin receptor; assay: Agonist activity at rat CTR expressed in Baby hamster kidney cells incubated for 3 hrs by cAMP assay; assay type: functional, cell-based, Baby hamster kidney cell
[11] = Solubility of compound at pH 8 incubated overnight by UPLC analysis; assay type: physicochemical; details: buffer
[12] = target: Amylin receptor AMY1, CALCR/RAMP1 (Homo sapiens, UniProt O60894+P30988); assay: Agonist activity at human AMY1R complex of CTR/RAMP1 transduced in human HeLa cells by cAMP assay; assay type: functional, cell-based
[13] = […] bioavailability in rat at 2.5 nmol/kg, sc; assay type: ADME, organism-based; details: in vivo
[14] = target: T2, Amylin receptor AMY3; CALCR/RAMP3; assay: Displacement of 125I-rat amylin from rat AMY3R complex of CTR/RAMP3 expressed in Baby hamster kidney cell membrane incubated for 120 mins by SPA method; assay type: cell membranes
[15] = target: Calcitonin-gene-related peptide receptor, CALCRL/RAMP1 (Homo sapiens, UniProt O60894+Q16602); assay: Agonist activity at human CGRPR complex of CRLR/RAMP1 transduced in human HeLa cells by cAMP assay; assay type: functional, cell-based
Rattus norvegicus [16] = assay: Appetite suppressing activity in rat assessed as reduction in food intake at 100 nmol/kg, sc measured for 48 hrs relative to control; assay type: functional; design: scale not given: the % may be the effect or the level left
Rattus norvegicus [17] = assay: Appetite suppressing activity in HFD-fed DIO rat model assessed as reduction in body weight at 0.7 to 22 nmol/kg, sc qd measured after 15 days; assay type: functional, organism-based; details: dose 0.7-22 nmol/kg, time 15.0 day
Calcitonin receptor [18] = target: T3, Calcitonin receptor (Homo sapiens, UniProt P30988); assay: Agonist activity at human CTR expressed in Baby hamster kidney cells incubated for 3 hrs followed by medium replacement without compound measured after 30 mins by luciferase reporter assay; assay type: functional, cell-based, Baby hamster kidney cell
T3 sequence (P30988 whole entry): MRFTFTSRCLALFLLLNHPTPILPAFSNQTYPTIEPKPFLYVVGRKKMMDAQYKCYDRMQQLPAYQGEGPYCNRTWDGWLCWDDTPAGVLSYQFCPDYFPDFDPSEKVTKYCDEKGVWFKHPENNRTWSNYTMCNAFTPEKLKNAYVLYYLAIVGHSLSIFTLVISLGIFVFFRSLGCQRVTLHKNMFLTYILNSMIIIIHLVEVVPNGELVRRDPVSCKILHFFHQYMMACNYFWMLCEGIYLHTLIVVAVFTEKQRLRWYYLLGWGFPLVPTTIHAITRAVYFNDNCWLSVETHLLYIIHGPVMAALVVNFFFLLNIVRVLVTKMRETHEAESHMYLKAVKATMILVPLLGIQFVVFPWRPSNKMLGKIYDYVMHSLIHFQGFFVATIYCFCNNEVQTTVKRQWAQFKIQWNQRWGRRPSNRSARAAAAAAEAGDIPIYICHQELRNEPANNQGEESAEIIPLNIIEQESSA

Calcitonin receptor [19] = target: T3, Calcitonin receptor; assay: Displacement of 125I-Calcitonin from human CTR expressed in Baby hamster kidney cell membrane incubated for 120 mins by SPA method; assay type: cell membranes
[20] = target: T4, Amylin receptor AMY3; CALCR/RAMP3 (Homo sapiens, UniProt O60896+P30988); assay: Agonist activity at human AMY3R complex of CTR/RAMP3 expressed in Baby hamster kidney cells incubated for 3 hrs followed by medium replacement without compound measured after 30 mins by luciferase reporter assay; assay type: functional, cell-based, Baby hamster kidney cell
T4 sequence (P30988 whole entry): T3 sequence (P30988 whole entry)
T4 sequence (O60896 whole entry): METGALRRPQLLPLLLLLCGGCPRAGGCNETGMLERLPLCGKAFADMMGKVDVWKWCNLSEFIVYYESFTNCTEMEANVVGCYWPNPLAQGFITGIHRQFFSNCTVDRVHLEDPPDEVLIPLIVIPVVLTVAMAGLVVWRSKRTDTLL

[21] = Terminal half life in rabbit at 2 nmol/kg, iv; assay type: ADME, Oryctolagus cuniculus; details: in vivo, read-out: beta t1/2 (converted)
Canis familiaris [22] = assay: Appetite suppressing activity in dog assessed as reduction in food intake administered subcutaneously measured for 48 hrs; assay type: functional, organism-based; details: Canis lupus familiaris, dose 3-300 nmol/kg, route sc
[23] = Toxicity in dog assessed as vomiting at 3 to 300 nmol/kg, sc; design: species or system Canis lupus familiaris; details: in vivo, dose 3-300 nmol/kg
[24] = Terminal half life in Beagle dog at 6 nmol/kg, iv; assay type: ADME, Canis lupus familiaris; details: in vivo, read-out: beta t1/2 (converted)

Calcitonin-gene-related peptide receptor, CALCRL/RAMP1, sequence (O60894 whole entry): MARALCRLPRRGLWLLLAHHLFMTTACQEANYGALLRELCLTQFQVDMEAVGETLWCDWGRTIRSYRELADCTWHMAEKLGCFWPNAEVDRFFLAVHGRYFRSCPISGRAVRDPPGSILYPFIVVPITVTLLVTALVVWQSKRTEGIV
Calcitonin-gene-related peptide receptor, CALCRL/RAMP1, sequence (Q16602 whole entry): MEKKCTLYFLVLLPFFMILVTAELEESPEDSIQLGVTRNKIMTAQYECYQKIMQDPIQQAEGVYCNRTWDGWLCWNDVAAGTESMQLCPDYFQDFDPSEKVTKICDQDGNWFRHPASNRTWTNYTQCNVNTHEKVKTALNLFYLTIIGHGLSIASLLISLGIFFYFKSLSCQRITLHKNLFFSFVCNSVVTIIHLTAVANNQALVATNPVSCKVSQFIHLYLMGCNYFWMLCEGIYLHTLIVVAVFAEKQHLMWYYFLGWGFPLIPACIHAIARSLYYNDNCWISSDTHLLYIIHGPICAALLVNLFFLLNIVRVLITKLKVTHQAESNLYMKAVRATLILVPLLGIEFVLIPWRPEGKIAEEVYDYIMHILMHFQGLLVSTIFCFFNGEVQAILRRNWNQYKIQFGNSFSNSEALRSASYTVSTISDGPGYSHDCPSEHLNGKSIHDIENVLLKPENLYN
Amylin receptor AMY1, CALCR/RAMP1, sequence (O60894 whole entry, one chain of several): as the sequence (O60894 whole entry) above
Amylin receptor AMY2; CALCR/RAMP2, sequence (O60895 whole entry, one chain of several): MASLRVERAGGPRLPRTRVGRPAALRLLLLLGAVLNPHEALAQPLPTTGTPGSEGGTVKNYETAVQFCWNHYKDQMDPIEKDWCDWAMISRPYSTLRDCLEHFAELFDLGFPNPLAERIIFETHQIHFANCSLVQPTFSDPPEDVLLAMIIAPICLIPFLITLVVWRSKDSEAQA

In the case of `CC[C@H](C)[C@H](NC(=O)[C@H](C)NC(=O)CNC(=O)[C@H](Cc1ccccc1)NC(=O)[C@H](CC(N)=O)NC(=O)[C@@H]1CCCN1C(=O)[C@H](CO)NC(=O)[C@H](CO)NC(=O)[C@H](Cc1c[nH]cn1)NC(=O)[C@H](CCCNC(=N)N)NC(=O)[C@H](CC(C)C)NC(=O)[C@H](Cc1ccccc1)NC(=O)[C@H](CC(=O)O)NC(=O)[C@H](C)NC(=O)[C@H](CC(C)C)NC(=O)[C@H](CCCNC(=N)N)NC(=O)[C@H](CCC(N)=O)NC(=O)[C@@H](NC(=O)[C@H](C)NC(=O)[C@@H]1CSSC[C@H](NC(=O)[C@@H](N)CCCCN)C(=O)N[C@@H](CC(N)=O)C(=O)N[C@@H]([C@@H](C)O)C(=O)N[C@@H](C)C(=O)N[C@@H]([C@@H](C)O)C(=O)N1)[C@@H](C)O)C(=O)N1CCC[C@H]1C(=O)N[C@@H](CO)C(=O)N[C@@H](CO)C(=O)N[C@H](C(=O)N[C@@H](CC(N)=O)C(=O)N[C@H](C(=O)NCC(=O)N[C@@H](CO)C(=O)N[C@@H](CCCNC(=N)N)C(=O)N[C@H](C(=O)N[C@@H](Cc1ccc(O)cc1)C(N)=O)[C@@H](C)O)C(C)C)[C@@H](C)O`, the solubility [1] is reported as ≥ 200 µM, the EC50 [2] is reported as 0.182 nM and the Activity (Canis familiaris [3]) is reported as “Active”. The IC50 (Calcitonin receptor [4]) was 135 nM, the Activity (Rattus norvegicus [5]) was “inactive” and the Activity (Rattus norvegicus [6]) was “inactive”. For the same compound, the EC50 [7] was 0.262 nM, the Activity (Rattus norvegicus [8]) was “Active” and the Activity (Rattus norvegicus [9]) was 32 g. For the same compound, the EC50 (Calcitonin receptor [10]) was 102 nM, the solubility [11] was 110 µM (≈ 437 µg/mL) and the EC50 [12] was 0.0575 nM. The bioavailability [13] was ~40%, the IC50 [14] was 0.29 nM and the EC50 [15] was 269 nM. For the same compound, the Activity (Rattus norvegicus [16]) was 70%, the Activity (Rattus norvegicus [17]) was “inactive” and the EC50 (Calcitonin receptor [18]) was 5.21 nM. It also gave an IC50 (Calcitonin receptor [19]) of 42 nM, an EC50 [20] of 0.177 nM and a half-life [21] of ~50 h. For the same compound, the Activity (Canis familiaris [22]) was “Dose-Dependent Effect”, the Activity [23] was “Non-Toxic” and the half-life [24] was ~76 h.
